Test results: patent US11278514B2, “Composition compromising dunnione as effective ingredient for prevention or alleviation of hair loss” (NADIANBIO LTD., priority 2018, dated 2022)

What was measured:
[1] = tested on: C57BL/6 mice having alopecia caused by cyclophosphamide; settings: cyclophosphamide alone (150 mg/kg i.p.); day 18
Procedure: The day, on which the mice were hair-removed in Example 1, was set as day 0, and the animals were divided into the following groups: normal group (Control, 4 animals) in which only PBS is intraperitoneally injected on day 9; cyclophosphamide group (CYP, 6 animals) in which cyclophosphamide (150 mg/kg) is intraperitoneally injected on day 9; combination-treated group (CYP+Dunnione, 6 animals) in which dunnione is orally administered on a daily basis starting from 3 days prior to treatment with cyclophosphamide; and dunnione alone-treated group (Dunnione, 4 animals) in which only dunnione (20 mg/kg) is administered (FIG. 1).
The day, on which the mice were hair-removed in Example 1, was set as day 0, and the mice in each of the experimental groups described in Example 2 were sacrificed on day 18. Subsequently, the mouse dorsal skin was dissected parallel or perpendicular to the vertebral line, and removed. The removed skin was fixed with a Bouin's solution for 12 hours, subjected to dehydration, and embedded in paraffin. Then, the resulting product was prepared into 5-μm sections. The prepared sections were subjected to hematoxylin and eosin (H&E) staining, and histological changes in the skin in each experimental group were observed.

NQO1 knockout mice [2] = settings: cyclophosphamide alone (150 mg/kg i.p.), until day 18
Procedure: (§1) The day, on which the NQO1 knockout mice were hair-removed according to Example 1, was set as day 0, and the animals were divided into the following experimental groups and used for experiments: normal group (Control, 4 animals) in which only PBS is intraperitoneally injected on day 9; cyclophosphamide group (CYP, 6 animals) in which cyclophosphamide (150 mg/kg) is intraperitoneally injected on day 9; combination-treated group (CYP+Dunnione, 6 animals) in which dunnione is orally administered on a daily basis starting from 3 days prior to treatment with cyclophosphamide; and dunnione alone-treated group (Dunnione, 4 animals) in which only dunnione (20 mg/kg) is administered (FIG. 1).

NQO1 knockout mice [3] = settings: cyclophosphamide alone, day 18
Procedure: as §1
The day, on which the NQO1 knockout mice were hair-removed according to Example 1, was set as day 0, and the mice in each of the experimental groups described in Example 3 were sacrificed on day 18. Subsequently, the mouse dorsal skin was dissected parallel or perpendicular to the vertebral line, and removed. The removed skin was fixed with a Bouin's solution for 12 hours, subjected to dehydration, and embedded in paraffin. Then, the resulting product was prepared into 5-μm sections. The prepared sections were subjected to hematoxylin and eosin (H&E) staining, and histological changes in the skin in each experimental group were observed.

NAD^+ = experiment: NAD+ and NADH concentrations and NAD+/NADH ratio in skin tissue, cyclophosphamide alopecia model; type: in vivo, mice; settings: cyclophosphamide alone vs normal group; day 18
Procedure: Specifically, in order to quantify the NAD^+ and NADH concentrations in the skin tissue obtained from the animal model prepared by the method in Example 2, the skin tissue was tested with the analysis kit (E2ND-100) of BioAssay Systems according to the instruction manual, and then the NAD^+/NADH ratio was analyzed. First, 10 mg of skin tissue was collected from the animal model. Then, 100 μl of extraction solution for NAD^+ or NADH was added to the skin tissue and homogenized. Then, the homogenized skin tissue was subjected to heat treatment at 60° C. for 5 minutes. Neutralization was performed by addition of the same volume of the extraction solution, and then centrifugation was performed at 14,000 rpm for 5 minutes to obtain the supernatant. Then, a developing reagent was added to the supernatant. The NAD^+ and NADH concentrations were determined from the absorbance measured at a wavelength of 565 nm, and the NAD^+/NADH ratio was analyzed.

Sirt1 = Sirt1 activity in skin tissue (fluorescent Sirt1 detection kit), cyclophosphamide alopecia model; type: in vivo, mice; settings: cyclophosphamide alone; day 18
Procedure: In addition, the skin tissue obtained from the animal model prepared by the method in Example 2 was homogenized. The homogenized skin tissue was tested with the fluorescent Sirt1 detection kit (BML-AK555-0001) of Enzo Life Sciences International, Inc. according to the instruction manual, and then Sirt1 activity was analyzed. 40 μg of the homogenized skin tissue was mixed with a reaction solution (Fluor de Lys-Sirt1, NAD+, buffer solution (25 mM Tris-HCl (pH8.0), 137 mM NaCl, 2.7 mM […], 1 mM MgCl2, and 1 mg/mL BSA)), and reaction was allowed to proceed at a temperature of 37° C. for 1 hour. Then, additional reaction was allowed to proceed for 5 minutes under a condition in which a developer is added. In order to check the final Sirt1 activity, readings were measured for the reaction solution using the CytoFluor series 4000 fluorometer (PerSeptive Biosystems, Inc., USA) with the excitation wavelength set to 360 nm and the emission to 460 nm.

Sirt1 protein = experiment: Expression level of Sirt1 protein in skin tissue (western blot), cyclophosphamide alopecia model; type: in vivo, mice; settings: cyclophosphamide alone; day 18
Procedure: (§2) In the cyclophosphamide-induced alopecia mouse model of Example 2, expression level of Sirt1 protein and acetylation reaction of the target proteins thereof, NF-κB p65 and p53, were identified on the skin tissue obtained on day 18 after hair removal.
(§3) Specifically, 10 mg of the skin tissue obtained from the animal model prepared by the method in Example 2 was homogenized by addition of a lysis solution (RIPA lysis buffer). Then, centrifugation was performed at 14,000 rpm for 10 minutes. The protein concentration in the supernatant was quantified with a bovine serum albumin (BSA) standard solution. The skin tissue protein was used in an amount of 40 μg per test solution. First, the homogenized skin tissue was mixed with a sample solution (Bio-Rad, 161-0747) and inactivated at a temperature of 95° C. for 5 minutes. Thereafter, the protein was separated by a sodium dodecyl sulfate-polyacrylamide gel electrophoresis (SDS-PAGE) method, and then transferred to a nitrocellulose membrane. Treatment with anti-Sirt1 antibody (Abcam), anti-acetyl NF-κB p65 antibody and anti-acetyl p53 antibody (Cell Signaling Technologies), and anti-β-actin antibody (Santa Cruz Biotechnology) as primary antibodies were performed, and reaction was allowed to proceed. […]

NF-κB p65 = experiment: Acetylation of NF-κB p65 in skin tissue (western blot), cyclophosphamide alopecia model; type: in vivo, mice; settings: cyclophosphamide alone; day 18
Procedure: as §2, §3

p53 = experiment: Acetylation of p53 in skin tissue (western blot), cyclophosphamide alopecia model; type: in vivo, mice; settings: cyclophosphamide alone; day 18
Procedure: as §2, §3

patients = settings: cancer patients; Batchelor D., Eur J Cancer Care, 2001; cited from earlier work

## O=P1(N(CCCl)CCCl)NCCCO1 (stereo not shown) [cyclophosphamide, reference compound]
[1]
  development of hair follicles and inner root sheaths (histology): the hair follicles have poorly developed or the inner root sheaths have insufficiently developed
NQO1 knockout mice [2]
  hair growth, visual observation of skin: hair hardly grew until day 18 after hair removal
NQO1 knockout mice [3]
  development of hair follicles and inner root sheaths (histology): the hair follicles have poorly developed or the inner root sheaths have insufficiently developed
NAD^+
  NAD^+ concentration in skin tissue: decreased
  NAD^+/NADH ratio in skin tissue: decreased
Sirt1
  Sirt1 activity in skin tissue: decreased
Sirt1 protein
  expression level of Sirt1 protein in skin tissue: decreased
NF-κB p65
  acetylation of NF-κB p65 in skin tissue: increased
p53
  acetylation of p53 in skin tissue: increased
patients
  patients in whom the agent causes CIA: ≥ 60%
